Experiment [1] deals with T1, recombinant human KRAS G12C protein (Homo sapiens, UniProt P01116, G12C).
T1 construct: The recombinant human KRAS G12C protein (aa1-169)
Description: Covalent binding ability to KRAS G12C protein (LC-MS). The note with it: 3 μM, 5 min. As for the experimental part: The following method was used to determine the covalent binding ability of the compounds of the present disclosure to recombinant human KRAS G12C protein under in vitro conditions.
The experimental procedure is briefly described as follows: The recombinant human KRAS G12C protein (aa1-169) was prepared with a reaction buffer (20 mM HEPES, 150 mM NaCl, 1 mM MgCl2, 1 mM DTT) at a concentration of 4 μM for later use. The test compound was prepared with DMSO into a 10 mM stock solution, which was then diluted with the reaction buffer for later use. First, 1.5 μL of the test compound diluted with the reaction buffer was added to each well (a final concentration of the reaction system was […]), then added with 23.5 μL of the reaction buffer, mixed well, then added with 25 μL of 4 μM recombinant human KRAS G12C protein for 5 min of incubation at room temperature, and added with 5 μL of acetic acid to stop the reaction. The samples were transferred to injection vials. The ratios of covalent binding between the test compounds and KRAS G12C protein were detected by Agilent 1290/6530 instrument, and the samples were analyzed in a liquid chromatography column (XBridge Protein BEH C4, 300 Å, 3.5 μm, 2.1 mm×50 mm). In the detection process, mobile phase A was 0.1% formic acid aqueous solution, mobile phase B was acetonitrile, the mobile phase elution program was as follows: mobile phase A was kept at 95% at 0-0.5 min, changed to 30% at 2.5 min for 0.5 min, and changed to 95% at 3.1 min for 1.9 min; and flow rate was 0.5 mL/min. Finally, the data was analyzed by MassHunter Workstation Software Bioconfirm Version B.08.00 to obtain the covalent binding rate between the test compound at a concentration of 3 μM and KRAS G12C protein under 5 min of incubation.

The test system of experiment [2] is p-ERK1/2 in NCI-H358 cells. Description: Inhibition of p-ERK1/2 in NCI-H358 cells (HTRF kit). As to conditions: Homo sapiens, hEGF 5 nM stimulation, read-out: IC50 inhibiting p-ERK1/2 in NCI-H358 cells. It counts as cell-based. An excerpt:
The following method was used to determine the inhibitory activity of the compounds of the present disclosure on p-ERK1/2 in NCI-H358 cells. In this method, Advanced phospho-ERK1/2 (Thr202/tyr204) kit (Cat. No. 64AERPEH) from Cisbio company was used, and the detailed experimental operation can be referred to the kit instruction. NCI-H358 cells (containing KRAS G12C mutation) were purchased from the Cell Resource Center, Shanghai Institutes for Biology Sciences, Chinese Academy of Sciences.
The experimental procedure is briefly described as follows: NCI-H358 cells were cultured in RPMIH 1640 complete medium containing 10% fetal bovine serum, 100 U penicillin, 100 μg/mL streptomycin and 1 mM sodium pyruvate. […] The 96-well plate was placed on ice for half an hour of lysis, and then the lysate was detected according to the instruction of the Advanced phospho-ERK1/2 (Thr202/tyr204) kit. Finally, the fluorescence intensity of each well at emission wavelengths of 620 nm and 665 nM was measured on a microplate reader in TF-FRET mode at an excitation wavelength of 304 nm, and the ratio of the fluorescence intensity of each well at 665/620 was calculated. The percentage of inhibition rate of the test compounds at each concentration was calculated by comparing with the fluorescence intensity of the control group (0.1% DMSO). […]

T1 sequence (P01116 1-169 isoform P01116-2 G12C): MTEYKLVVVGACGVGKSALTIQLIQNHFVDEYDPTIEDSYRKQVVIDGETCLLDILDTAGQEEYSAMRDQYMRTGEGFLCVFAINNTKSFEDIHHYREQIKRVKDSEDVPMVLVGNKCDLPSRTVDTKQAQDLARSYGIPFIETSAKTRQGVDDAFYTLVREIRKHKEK

For the compound `C=CC(=O)N1C[C@@H]2C(=O)N(C)c3c(c4cc(Cl)c(-c5c(O)cccc5F)nc4n(-c4c(SC)ccnc4C(C)C)c3=O)N2C[C@H]1C` (single isomer, unassigned) [Compound 17], in experiment [1], the “Covalent binding rate (%)” value was 63.4%. Moreover, the IC50 in experiment [2] came to 83.4 nM.

The values above are taken from patent US20230295163A1, “TETRACYCLIC DERIVATIVE, METHOD FOR PREPARING SAME AND USE THEREOF IN MEDICINE” (ZHEJIANG HISUN PHARMACEUTICAL CO., LTD., priority 2020, published 2023).
